Source: patent publication US11345679B2, “Quaternary lactam compound and pharmaceutical use thereof” (SHANGHAI MEIYUE BIOTECH DEVELOPMENT CO., LTD., priority 2018, dated 2022)
Where two headings read alike, the source gives them in different places.

Assays:
[1] = biological target: human FXIa protein (hFXIa) (Homo sapiens (Human), UniProt P03951); assay: Enzyme activity assay in vitro (FXIa, S-2366 substrate); assay type: biochemical; details: absorbance at OD405nm
Protocol: II. Enzyme Activity Assay In Vitro
Method: the test compound was dissolved in 10 mM mother liquor with DMSO, and stored at −80° C. until use.

human plasma = assay: Determination of activated partial thromboplastin time (APTT); assay type: biochemical
Protocol: 1. Determination of Activated Partial Thromboplastin Time (APTT)
1. Preparation of human plasma: human venous whole blood was collected and placed in 3.2% sodium citrate anticoagulation tube (human blood: sodium citrate=9:1 (V/V)). The tube was centrifuged at ˜1560 g for 8 min, to obtain human plasma.
2. Preparation of the test sample: the test compound was dissolved in DMSO, and diluted in gradient to obtain 3000, 600, 120, 24, 4.8 μM stock solutions; each stock solution was mixed with the human plasma as prepared under item 1 at a ratio of 1:49 (V/V).
3. Negative control: DMSO solvent without the test compound was diluted in gradient to obtain 3000, 600, 120, 24, 4.8 μM stock solutions; each stock solution was mixed with the human plasma as prepared under item 1 at a ratio of 1:49 (V/V).
4. Test: After mixing the test solution of the above test sample and that of the negative control separately for 3 to 5 minutes, 30 μL of the test solution was added to the machine (MC-2000 coagulometer), and pre-warmed at 37° C. for 2 min; 30 μL of APTT reagent (MDC Hemostasis, Cat: 300025) was added and incubated at 37° C. for 5 min; and then 30 μL CaCl2 was added to initiate the APTT measurement.
According to the measured APTT result, APTT ratio was calculated according to the following formula. APTT ratio=(APTTtest compound/APTTnegative control).
Exponential equation was used to fit the Lg (concentration) to APTT ratio (Origin Pro 8.5.1 SR2), the drug working concentrations at 1.5 times APTT ratio and 2 times APTT ratio were calculated, namely EC150 and EC200.

[2] = drug working concentration at 1.5 times APTT ratio, read-out: EC150
[3] = drug working concentration at 2 times APTT ratio, read-out: EC200

human FXIa protein (hFXIa), sequence (P03951 388-625): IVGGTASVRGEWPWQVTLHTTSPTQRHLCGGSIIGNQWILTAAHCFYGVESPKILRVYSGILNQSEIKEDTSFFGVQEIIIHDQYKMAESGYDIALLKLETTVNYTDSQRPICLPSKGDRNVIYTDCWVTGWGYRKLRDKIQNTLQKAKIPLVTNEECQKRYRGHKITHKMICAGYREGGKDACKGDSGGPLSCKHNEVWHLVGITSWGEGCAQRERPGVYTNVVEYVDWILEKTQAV
human FXIa protein (hFXIa), sequence (P03951 19-387 partner): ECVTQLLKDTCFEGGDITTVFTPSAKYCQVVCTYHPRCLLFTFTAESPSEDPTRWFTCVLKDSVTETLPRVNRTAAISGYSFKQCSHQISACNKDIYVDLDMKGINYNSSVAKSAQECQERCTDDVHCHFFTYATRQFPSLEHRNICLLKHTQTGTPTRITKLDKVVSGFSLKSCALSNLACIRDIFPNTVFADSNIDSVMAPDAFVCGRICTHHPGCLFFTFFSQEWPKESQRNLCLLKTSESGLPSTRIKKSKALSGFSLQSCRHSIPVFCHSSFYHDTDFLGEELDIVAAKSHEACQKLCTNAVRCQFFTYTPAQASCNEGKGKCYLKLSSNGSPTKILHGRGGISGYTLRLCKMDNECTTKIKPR

Structure (SMILES)	IC50 [1] [nM]	concentration giving fixed-fold APTT prolongation (human plasma; [2]) [µM]	concentration giving fixed-fold APTT prolongation (human plasma; [3]) [µM]
COC(=O)Nc1cccc(C2CCCN(C(=O)N3C(=O)[C@H](Cc4ccnc(N)c4)[C@H]3C(=O)O)C2)c1 (stereo partly shown) [Example 42]	9.1		
CNC(=O)[C@@H]1[C@@H](Cc2ccnc(N)c2)C(=O)N1C(=O)N1CCCCC1c1ccccc1 (stereo partly shown) [Example 19]	5.99		
CN(C)C(=O)[C@@H]1[C@@H](Cc2ccnc(N)c2)C(=O)N1C(=O)N1CCCCC1c1ccccc1 (stereo partly shown) [Example 20]	10.8		
CNC(=O)[C@@H]1[C@@H](Cc2ccnc(N)c2)C(=O)N1C(=O)N1CCCC(c2ccc(F)cc2)C1 (stereo partly shown) [Example 30]	2.4		
Nc1cc(C[C@H]2C(=O)N(C(=O)N3CCCC(c4cccc5ccccc45)C3)[C@@H]2C(=O)O)ccn1 (stereo partly shown) [Example 46]	7.7		
N#Cc1ccc2c(c1)CCN2C(=O)N1C(=O)[C@H](Cc2ccnc(N)c2)[C@H]1C(=O)O [Example 13]	23.2		
CNC(=O)[C@@H]1[C@@H](Cc2ccnc(N)c2)C(=O)N1C(=O)N1CCC[C@H](c2ccccc2)C1 [Example 23]	1.5	1.48	4.4
CS(=O)(=O)NC(=O)[C@@H]1[C@@H](Cc2ccnc(N)c2)C(=O)N1C(=O)N1CCCCC1c1ccccc1 (stereo partly shown) [Example 18]	10.7		
Nc1cc(C[C@H]2C(=O)N(C(=O)N3CCCC(c4ccc5c(c4)OC(F)(F)O5)C3)[C@@H]2C(=O)O)ccn1 (stereo partly shown) [Example 26]	11.1		
CN(C)C(=O)[C@@H]1[C@@H](Cc2ccnc(N)c2)C(=O)N1C(=O)N1CCC[C@H](c2ccccc2)C1 [Example 24]	3.6		
Nc1cc(C[C@H]2C(=O)N(C(=O)N3CCC[C@H](c4ccccc4)C3)[C@@H]2C(=O)O)ccn1 [Example 16]	1.89	1.41	6.99
CNC(=O)[C@@H]1[C@@H](Cc2ccnc(N)c2)C(=O)N1C(=O)N1CCC[C@@H](c2ccccc2)C1 [Example 41]	4.1	2.18	8.22
CNC(=O)[C@@H]1[C@@H](Cc2ccnc(N)c2)C(=O)N1C(=O)N1CCCC(C2CCCCCCC2)C1 (stereo partly shown) [Example 45]	5.3		
NC(=O)[C@@H]1[C@@H](Cc2ccnc(N)c2)C(=O)N1C(=O)N1CCC[C@@H](c2ccccc2)C1 [Example 31]	2.8		
CS(=O)(=O)NC(=O)[C@@H]1[C@@H](Cc2ccnc(N)c2)C(=O)N1C(=O)N1CCC[C@H](c2ccccc2)C1 [Example 25]	3.2		
Cn1cc(C2CCCN(C(=O)N3C(=O)[C@H](Cc4ccnc(N)c4)[C@H]3C(=O)O)C2)cn1 (stereo partly shown) [Example 28]	23.1		
CNC(=O)[C@@H]1[C@@H](Cc2ccnc(N)c2)C(=O)N1C(=O)N1CCCC(c2ccccc2)C1 (stereo partly shown) [Example 51]	3.3		
NC(=O)[C@@H]1[C@@H](Cc2ccnc(N)c2)C(=O)N1C(=O)N1CCCC(c2ccc3c(c2)OC(F)(F)O3)C1 (stereo partly shown) [Example 32]	4.1		
CNC(=O)[C@@H]1[C@@H](Cc2ccnc(N)c2)C(=O)N1C(=O)N1CCCC(c2ccc3c(c2)OC(F)(F)O3)C1 (stereo partly shown) [Example 33]	3.5		
